Here are results for 33 molecules from the SangsterLogP compilation.

For orientation: logP means the decadic logarithm of the partition coefficient of the neutral form, usually between octanol and water. Low values mean lower lipophilicity, high ones higher lipophilicity. What is called logD is the decadic logarithm of the distribution of all forms, ionised or not, between an organic phase and buffer at a given pH.

Assay in one data set: not given
Conditions: not given
The molecule `CN(C)c1ccc(C=C2CCc3ccccc3C2=O)cc1` showed a logP of 4.91.
Turning to `O=C1C(=Cc2ccccc2Cl)CCCc2ccccc21`, the logP stood at 5.04.
In the case of `COc1ccc(C=C2CCCc3ccccc3C2=O)cc1`, the logP amounted to 4.72.
Take `COc1cccc(/C=C2\CCc3ccccc3C2=O)c1`: the logP was found to be 4.42.
For the molecule `Cc1cccc(C=C2CCCc3ccccc3C2=O)c1`, the logP was found to be 4.98.
`COc1ccccc1C=C1Cc2ccccc2C1=O`: the logP amounted to 4.01.
`O=C1C(=Cc2cccc(Br)c2)CCCc2ccccc21` gave a logP of 5.35.
Take `COc1ccccc1C=CC(=O)c1ccccc1`: the logP was found to be 3.99.
`CN(C)c1ccc(C=C2CCCc3ccccc3C2=O)cc1` had a lipophilicity (logP) of 5.26.
In the case of `N#Cc1ccc(/C=C/C(=O)c2ccccc2)cc1`, the logP was determined as 2.93.
In the case of `O=C1C(=Cc2ccccc2)CCCc2ccccc21`, the lipophilicity (logP) is 4.48.
The same measure, in the same setting: next, `COc1cccc(C=C2Cc3ccccc3C2=O)c1`: 3.97; `COc1ccccc1C=C1CCCc2ccccc2C1=O`: 4.69.
Take `O=C1C(=Cc2ccc(F)cc2)CCCc2ccccc21`: the logP was found to be 4.45.
`O=C1C(=Cc2ccccc2Br)CCCc2ccccc21` displayed a logP of 5.04.
The molecule `O=C1C(=Cc2ccc([N+](=O)[O-])cc2)CCCc2ccccc21` gave a log partition coefficient (logP) of 4.15.
For `Cc1ccccc1C=C1CCCc2ccccc2C1=O`, the logP stood at 4.92.
Same read-out and setting: the result for `CN(C)c1ccc(C=C2Cc3ccccc3C2=O)cc1` reads 4.5; that for `O=C1C(=Cc2ccc(Br)cc2)CCCc2ccccc21`, 5.22; that for `O=C1C(=Cc2cccc([N+](=O)[O-])c2)CCCc2ccccc21`, 4.32.
`COc1cccc(C=CC(=O)c2ccccc2)c1` registered a logP of 3.8.
On the same count and under the same terms, the result for `O=C1C(=Cc2ccc(Cl)cc2)CCCc2ccccc21` reads 5.1; that for `COc1ccc(C=C2Cc3ccccc3C2=O)cc1`, 3.91; that for `COc1ccc(/C=C/C(=O)c2ccccc2)cc1`, 3.67.
Same read-out and setting: the result for `O=C1/C(=C/c2ccccc2[N+](=O)[O-])CCCc2ccccc21` reads 4.07.
`CN(C)c1ccc(/C=C/C(=O)c2ccccc2)cc1` displayed a log partition coefficient (logP) of 4.23.
The same measure, in the same setting: next, `COc1ccc(C=C2CCc3ccccc3C2=O)cc1`: 4.32; `O=C1/C(=C\c2ccccc2)CCc2ccccc21`: 4.14.
The same measure, in the same setting: the result for `COc1ccccc1C=C1CCc2ccccc2C1=O` reads 4.43.
`O=C1C(=Cc2cccc(F)c2)CCCc2ccccc21` gave a logP of 4.6.
Still for that read-out and setting: next, `Cc1ccc(C=C2CCCc3ccccc3C2=O)cc1`: 5.1.

The nature of the next data set: method code SF-AS, from Krisztina, T.; Perjesi, P.; Vámos, J. (2001). Determination of logP for biologically active chalcones and cyclic chalcone analogs by RPTLC. Journal of Planar Chromatography - Modern TLC. 14, 42-46. To be noted: pH 7.4.
Turning to `O=C(C=Cc1ccccc1)c1ccccc1`, the logD amounted to 3.62.
Molecule `O=C1C(=Cc2ccccc2)Cc2ccccc21` yielded a logD of 3.66.
